# Assays:
# [1] = Solubility in DI water at room temperature (visual inspection); format: physicochemical; settings: DI water, TFA salt form, read-out: Solubility (in Water, RT)
# Description: The analog polypeptides described herein were tested for solubility in saline or in aqueous (DI water) at room temperature. Samples were visually inspected for clarity of the sample, any appearance of turbidity or haziness.
# [2] = Stability in water or saline (1 mg/ml) at 37° C., purity by LC/MS and HPLC; format: physicochemical; settings: TFA salt form
# human Y2 receptor = biological target: T1, human Y2 receptor (Homo sapiens, UniProt P49146); assay: NPY receptor functional assay (cAMP, HEK-CNG cells, ACTOne membrane potential dye); format: cell-based; settings: NPY2R pEC50, HEK-CNG cells; standard PYY(3-36); species (human or rat) not given
# T1 sequence (P49146 1-381): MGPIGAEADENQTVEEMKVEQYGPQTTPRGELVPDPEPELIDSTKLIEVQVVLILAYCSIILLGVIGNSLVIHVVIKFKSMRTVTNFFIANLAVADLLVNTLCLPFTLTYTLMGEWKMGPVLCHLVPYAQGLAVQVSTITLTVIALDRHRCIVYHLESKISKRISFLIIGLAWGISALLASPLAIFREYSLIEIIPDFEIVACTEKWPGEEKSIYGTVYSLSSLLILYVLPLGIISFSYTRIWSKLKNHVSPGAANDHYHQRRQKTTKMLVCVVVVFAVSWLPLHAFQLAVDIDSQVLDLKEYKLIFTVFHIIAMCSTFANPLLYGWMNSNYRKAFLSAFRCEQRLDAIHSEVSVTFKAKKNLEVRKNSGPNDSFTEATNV
# Outline: (§1)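 HEK-CNG cells stably expressing each human receptor; peptides added in triplicate for 50 minutes at room temperature, with agonism read as decreased isoproterenol-induced membrane potential dye signal (final/initial read).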
# human Y5 receptor = biological target: T2, human Y5 receptor (Homo sapiens, UniProt Q15761); assay: as above; format: cell-based; settings: NPY5R pEC50, HEK-CNG cells; standard NPY; species (human or rat) not given
# T2 sequence (Q15761 1-445): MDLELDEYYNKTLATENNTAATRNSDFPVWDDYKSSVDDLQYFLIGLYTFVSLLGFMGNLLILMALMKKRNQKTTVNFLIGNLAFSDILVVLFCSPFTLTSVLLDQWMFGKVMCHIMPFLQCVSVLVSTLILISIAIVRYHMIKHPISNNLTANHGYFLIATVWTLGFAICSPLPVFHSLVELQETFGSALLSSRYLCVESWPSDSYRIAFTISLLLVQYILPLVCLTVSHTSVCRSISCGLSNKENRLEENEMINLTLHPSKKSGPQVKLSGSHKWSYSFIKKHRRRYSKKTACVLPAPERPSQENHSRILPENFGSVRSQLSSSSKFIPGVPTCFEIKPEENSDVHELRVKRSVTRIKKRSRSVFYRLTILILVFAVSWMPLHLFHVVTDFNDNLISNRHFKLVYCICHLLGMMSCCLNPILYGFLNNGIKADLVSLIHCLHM
# Outline: as §1
# [3] = In vitro stability in subcutaneous (SC) tissue homogenates; format: in vitro ADME; settings: subcutaneous tissue homogenate, pH 7.4; human SC tissue homogenate 1.0 mg protein/mL, 10 mcM peptide, 37° C.; read-out: (H)SC tissue stability t½ (converted)
smiles,measurement,setting,value
CC(C)C[C@H](NC(=O)[C@H](Cc1ccc(O)cc1)NC(=O)[C@H](Cc1c[nH]cn1)NC(=O)[C@H](CCCNC(=N)N)NC(=O)[C@H](CC(C)C)NC(=O)[C@H](CC(=O)O)NC(=O)[C@@H](CCCCNC(=O)CC[C@H](NC(=O)CC[C@H](NC(=O)CCCCCCCCCCCCCCCCCCC(=O)O)C(=O)O)C(=O)O)NC(=O)[C@H](Cc1ccc(O)cc1)NC(=O)[C@H](Cc1ccc(O)cc1)NC(=O)[C@H](CCCNC(=N)N)NC(=O)[C@H](CC(N)=O)NC(=O)[C@H](Cc1c[nH]c2ccccc12)NC(=O)[C@H](CCC(=O)O)NC(=O)[C@H](CCC(=O)O)NC(=O)[C@@H]1CCCN1C(=O)[C@H](CO)NC(=O)[C@H](C)NC(=O)[C@H](CC(=O)O)NC(=O)[C@H](CCCCN)NC(=O)CNC(=O)[C@@H]1CCCN1C(=O)[C@H](C)NC(=O)[C@H](CCC(=O)O)NC(=O)[C@@H]1CCCN1C(=O)[C@H](CCCCN)NC(=O)[C@@H]1CCCN1)C(=O)N[C@@H](CC(N)=O)C(=O)N[C@@H](Cc1c[nH]c2ccccc12)C(=O)N[C@@H](CC(C)C)C(=O)N[C@H](C(=O)N[C@@H](CCCNC(=N)N)C(=O)N[C@@H](CCC(N)=O)C(=O)N[C@@H](CCCNC(=N)N)C(=O)N[C@@H](Cc1ccccc1)C(N)=O)[C@@H](C)O [Compound A14],solubility,[1],79 mg/mL
same,"Stability (37° C./RT, T0: Mar. 25, 2020)",[2],94.2
same,EC50,human Y2 receptor,0.0794 nM
same,EC50,human Y5 receptor,5.01 nM
same,half-life at 10 mcM,[3],4.5 h

# — patent publication US12122816B2, “Long acting peptide tyrosine tyrosine (PYY) analogs and methods of use” (Intarcia Therapeutics, Inc., priority 2020, dated 2024)
